The values below come from patent publication US20250179079A1, “HEXAHYDROPYRIDO[4,3-B]INDOLYL KETONE DERIVATIVES USEFUL AS CGAS MODULATORS” (Ventus Therapeutics U.S., Inc., priority 2022, published 2025).

For the assay, the target named is h-cGAS (Homo sapiens (Human), UniProt Q8N884). Nature of the assay: hcGAS Kinase-Glo assay. The assay is classed as biochemical. On the technique in general: Kinase-Glo measures the ATP left after a reaction by luminescence.
[1] abbreviates: Table C, raw data in parentheses, read-out: hcGAS IC50.
Where [2] appears, read: Table C, IC50 range designation, read-out: hcGAS IC50.

Like-named read-outs stand apart in the source and are kept apart here.

Sequence of h-cGAS (Q8N884 whole entry): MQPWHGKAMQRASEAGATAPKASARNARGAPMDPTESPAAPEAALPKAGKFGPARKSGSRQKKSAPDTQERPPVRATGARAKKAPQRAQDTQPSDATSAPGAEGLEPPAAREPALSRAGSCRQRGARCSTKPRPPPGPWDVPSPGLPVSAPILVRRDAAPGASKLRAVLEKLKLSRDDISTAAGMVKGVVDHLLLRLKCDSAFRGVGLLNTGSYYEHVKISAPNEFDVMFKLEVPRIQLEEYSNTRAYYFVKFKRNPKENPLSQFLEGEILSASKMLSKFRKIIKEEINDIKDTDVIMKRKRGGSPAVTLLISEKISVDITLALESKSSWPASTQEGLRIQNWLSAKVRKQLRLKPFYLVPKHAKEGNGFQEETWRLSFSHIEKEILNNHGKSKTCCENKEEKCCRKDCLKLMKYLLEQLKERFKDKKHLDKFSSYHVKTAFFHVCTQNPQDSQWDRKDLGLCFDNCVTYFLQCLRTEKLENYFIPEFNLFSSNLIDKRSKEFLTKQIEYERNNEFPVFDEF

With `CC1c2c([nH]c3c(Cl)c(Cl)ccc23)CCN1C(=O)c1ncc(N2CCOCC2)cn1` (racemic) [Rac-44, (6,7-dichloro-1-methyl-1,3,4,5-tetrahydro-2H-pyrido[4,3-b]indol-2-yl)(5-morpholinopyrimidin-2-yl)methanone], the IC50 is 68.5 nM under setting [1] and less than 100 nM (read-out: hcGAS activity).
For `CNc1cnc(C(=O)N2CCc3[nH]c4c(Cl)c(Cl)ccc4c3C2C)nc1` (racemic) [Rac-46, (6,7-dichloro-1-methyl-1,3,4,5-tetrahydro-2H-pyrido[4,3-b]indol-2-yl)(5-(methylamino)pyrimidin-2-yl)methanone] the same measures were 51.4 nM and less than 100 nM.
Regarding `CC1c2c([nH]c3c(Cl)c(Cl)ccc23)CCN1C(=O)c1ncc(N(C)CCN(C)C)cn1` (racemic) [Rac-47, (6,7-dichloro-1-methyl-1,3,4,5-tetrahydro-2H-pyrido[4,3-b]indol-2-yl)(5-((2-(dimethylamino)ethyl)(methyl)amino)pyrimidin-2-yl)methanone], under setting [1], the IC50 was 50.1 nM.
The same measure, in the same setting: then `CC1c2c([nH]c3c(Cl)c(Cl)ccc23)CCN1C(=O)c1ncc(N2CCN(C)CC2)cn1` (racemic) [Rac-48, (6,7-dichloro-1-methyl-1,3,4,5-tetrahydro-2H-pyrido[4,3-b]indol-2-yl)(5-(4-methylpiperazin-1-yl)pyrimidin-2-yl)methanone], with 52 nM; and `CC1c2c([nH]c3c(Cl)c(Cl)ccc23)CCN1C(=O)c1ncc(N2CCN(C3COC3)CC2)cn1` (racemic) [Rac-49, (6,7-dichloro-1-methyl-1,3,4,5-tetrahydro-2H-pyrido[4,3-b]indol-2-yl)(5-(4-(oxetan-3-yl)piperazin-1-yl)pyrimidin-2-yl)methanone], with 102 nM; and `CC1c2c([nH]c3c(Cl)c(Cl)ccc23)CCN1C(=O)c1ncc(N2CCN3CC(F)(F)C[C@H]3C2)cn1` (mixture of isomers) [Rac-50, (6,7-dichloro-1-methyl-1,3,4,5-tetrahydro-2H-pyrido[4,3-b]indol-2-yl)(5-((S)-7,7-difluorohexahydropyrrolo[1,2-a]pyrazin-2(1H)-yl)pyrimidin-2-yl)methanone], with 89.5 nM.
As to `CC1c2c([nH]c3c(Cl)c(Cl)ccc23)CCN1C(=O)CN` (racemic) [Rac-51, 2-amino-1-(6,7-dichloro-1-methyl-1,3,4,5-tetrahydro-2H-pyrido[4,3-b]indol-2-yl)ethan-1-one], the IC50 under setting [1] came out at 37.7 nM.
Turning to `COCCOc1ccnc(C(=O)N2CCc3[nH]c4c(Cl)c(Cl)ccc4c3C2C)n1` (racemic) [Rac-67, (6,7-dichloro-1-methyl-1,3,4,5-tetrahydro-2H-pyrido[4,3-b]indol-2-yl)(4-(2-methoxyethoxy)pyrimidin-2-yl)methanone], the IC50 is, setting by setting: under setting [1], 251 nM; (read-out: hcGAS activity) less than 100 nM.
In the case of `COc1ccnc(C(=O)N2CCc3[nH]c4c(Cl)c(Cl)ccc4c3C2C)n1` (racemic) [Rac-68, (6,7-dichloro-1-methyl-1,3,4,5-tetrahydro-2H-pyrido[4,3-b]indol-2-yl)(4-methoxypyrimidin-2-yl)methanone], the IC50 reads like this: under setting [1], 94.5 nM; (read-out: hcGAS activity) less than 100 nM.
For `CC1c2c([nH]c3c(Cl)c(Cl)ccc23)CCN1C(=O)c1nccc(OCCO)n1` (racemic) [Rac-70, (6,7-dichloro-1-methyl-1,3,4,5-tetrahydro-2H-pyrido[4,3-b]indol-2-yl)(4-(2-hydroxyethoxy)pyrimidin-2-yl)methanone] the same measures were 78.7 nM and less than 100 nM.
Consider `COc1cnc(C(=O)N2CCc3[nH]c4c(Cl)c(Cl)ccc4c3C2C)nc1OC` (racemic) [Rac-83, (6,7-dichloro-1-methyl-1,3,4,5-tetrahydro-2H-pyrido[4,3-b]indol-2-yl)(4,5-dimethoxypyrimidin-2-yl)methanone], for which the IC50 under setting [1] is 206 nM.
For `CC1c2c([nH]c3c(Cl)c(Cl)ccc23)CCN1C(=O)c1nccc(OCCN(C)C)n1` (racemic) [Rac-88, (6,7-dichloro-1-methyl-1,3,4,5-tetrahydro-2H-pyrido[4,3-b]indol-2-yl)(4-(2-(dimethylamino)ethoxy)pyrimidin-2-yl)methanone], under setting [1], the IC50 came to 110 nM.
Consider `CC1c2c([nH]c3c(Cl)c(Cl)ccc23)CCN1C(=O)NO` (racemic) [Rac-97, 6,7-dichloro-N-hydroxy-1-methyl-1,3,4,5-tetrahydro-2H-pyrido[4,3-b]indole-2-carboxamide], for which the IC50 under setting [1] came to 821 nM.
Consider `CONC(=O)N1CCc2[nH]c3c(Cl)c(Cl)ccc3c2C1C` (racemic) [Rac-98, 6,7-dichloro-N-methoxy-1-methyl-1,3,4,5-tetrahydro-2H-pyrido[4,3-b]indole-2-carboxamide], for which the IC50 under setting [1] came to 1320 nM.
Still for that read-out and setting: with `COc1cnc(C(=O)N2CCc3[nH]c4c(Cl)c(Cl)cc(SC)c4c3C2C)nc1` (racemic) [Rac-101, (6,7-dichloro-1-methyl-9-(methylthio)-1,3,4,5-tetrahydro-2H-pyrido[4,3-b]indol-2-yl)(5-methoxypyrimidin-2-yl)methanone] the figure was 409 nM.
Turning to `COc1cnc(C(=O)N2CCc3[nH]c4c(Cl)c(Cl)cc(C)c4c3C2C)nc1` (racemic) [Rac-103, (6,7-dichloro-1,9-dimethyl-1,3,4,5-tetrahydro-2H-pyrido[4,3-b]indol-2-yl)(5-methoxypyrimidin-2-yl)methanone], the IC50 under setting [1] was found to be 115 nM.
With `COc1cnc(C(=O)N2CCc3[nH]c4c(Cl)c(Cl)cc(OC)c4c3C2C)nc1` (racemic) [Rac-132, (6,7-dichloro-9-methoxy-1-methyl-1,3,4,5-tetrahydro-2H-pyrido[4,3-b]indol-2-yl)(5-methoxypyrimidin-2-yl)methanone], the IC50 under setting [1] is 45.5 nM.
With `C[C@@H]1c2c([nH]c3c(Cl)c(Cl)ccc23)CCN1C(=O)CN` (single isomer, unassigned) [51A*], the IC50 is, setting by setting: under setting [2], greater than 5000 nM; under setting [1], greater than 10000 nM.
As to `C[C@H]1c2c([nH]c3c(Cl)c(Cl)ccc23)CCN1C(=O)CN` (single isomer, unassigned) [51B*], the IC50 was less than 100 nM under setting [2] and 17.8 nM under setting [1].
For `COc1cnc(C(=O)N2CCn3nc4c(Cl)c(Cl)ccc4c3[C@H]2C)nc1` (single isomer, unassigned) [52A*] the same measures were greater than 5000 nM and greater than 10000 nM.
In the same order, the values of `COc1cnc(C(=O)N2CCn3nc4c(Cl)c(Cl)ccc4c3[C@@H]2C)nc1` (single isomer, unassigned) [52B*] are less than 100 nM and 71.5 nM.
In the same order, the values of `C[C@@H]1c2c3c(-c4ccn(C)n4)cc(Cl)c(Cl)c3nn2CCN1C(=O)CO` (single isomer, unassigned) [61A*] are greater than 5000 nM and greater than 10000 nM.
For the compound `C[C@H]1c2c3c(-c4ccn(C)n4)cc(Cl)c(Cl)c3nn2CCN1C(=O)CO` (single isomer, unassigned) [61B*], the IC50 is less than 100 nM under setting [2] and 59.9 nM under setting [1].
For `C[C@H]1c2c([nH]c3c(Cl)c(Cl)ccc23)CCN1C(=O)c1ncc(C#N)[nH]1` (single isomer, unassigned) [95B*], the IC50 under setting [1] is 587 nM.
In the case of `O=C(c1ncc[nH]1)N1CCc2[nH]c3c(Cl)c(Cl)ccc3c2C1` [Compound 5, (6,7-dichloro-1,3,4,5-tetrahydro-2H-pyrido[4,3-b]indol-2-yl)(1H-imidazol-2-yl)methanone], the IC50 reads like this: under setting [2], 500 to 1000 nM; under setting [1], 878 nM; (read-out: hcGAS activity) 500 to 1000 nM.
Turning to `O=C(c1nnn[nH]1)N1CCc2[nH]c3c(Cl)c(Cl)ccc3c2C1` [Compound 7, (6,7-dichloro-1,3,4,5-tetrahydro-2H-pyrido[4,3-b]indol-2-yl)(1H-tetrazol-5-yl)methanone], the IC50 was 1000 to 5000 nM under setting [2], 3300 nM under setting [1] and 1000 to 5000 nM (read-out: hcGAS activity).
Take `Cn1cnc(C(=O)N2CCc3[nH]c4c(Cl)c(Cl)ccc4c3C2)n1` [Compound 9, (6,7-dichloro-1,3,4,5-tetrahydro-2H-pyrido[4,3-b]indol-2-yl)(1-methyl-1H-1,2,4-triazol-3-yl)methanone]: the IC50 is, setting by setting: under setting [2], 1000 to 5000 nM; under setting [1], 1070 nM; (read-out: hcGAS activity) 1000 to 5000 nM.
In the case of `Cc1cnc(C(=O)N2CCc3[nH]c4c(Cl)c(Cl)ccc4c3C2)[nH]1` [Compound 10, (6,7-dichloro-1,3,4,5-tetrahydro-2H-pyrido[4,3-b]indol-2-yl)(5-methyl-1H-imidazol-2-yl)methanone], the IC50 was 1000 to 5000 nM under setting [2], 3220 nM under setting [1] and 1000 to 5000 nM (read-out: hcGAS activity).
`Nc1ccnc(C(=O)N2CCc3[nH]c4c(Cl)c(Cl)ccc4c3C2)n1` [Compound 14, (4-aminopyrimidin-2-yl)(6,7-dichloro-1,3,4,5-tetrahydro-2H-pyrido[4,3-b]indol-2-yl)methanone]: the IC50 reads like this: under setting [2], 1000 to 5000 nM; under setting [1], 1520 nM; (read-out: hcGAS activity) 1000 to 5000 nM.
In the case of `O=C(c1ncc(F)cn1)N1CCc2[nH]c3c(Cl)c(Cl)ccc3c2C1` [Compound 15, (6,7-dichloro-1,3,4,5-tetrahydro-2H-pyrido[4,3-b]indol-2-yl)(5-fluoropyrimidin-2-yl)methanone], the IC50 reads like this: under setting [2], 500 to 1000 nM; under setting [1], 842 nM; (read-out: hcGAS activity) 500 to 1000 nM.
As for `COCCOCn1c2c(c3ccc(Cl)c(Cl)c31)CN(C(=O)c1ncc(OC)cn1)CC2` [Compound 23, (6,7-dichloro-5-((2-methoxyethoxy)methyl)-1,3,4,5-tetrahydro-2H-pyrido[4,3-b]indol-2-yl)(5-methoxypyrimidin-2-yl)methanone], the IC50 was 1000 to 5000 nM under setting [2], 2250 nM under setting [1] and 1000 to 5000 nM (read-out: hcGAS activity).
As to `O=C(c1ncc(N2CCOCC2)cn1)N1CCc2[nH]c3c(Cl)c(Cl)ccc3c2C1` [Compound 31, (6,7-dichloro-1,3,4,5-tetrahydro-2H-pyrido[4,3-b]indol-2-yl)(5-morpholinopyrimidin-2-yl)methanone], the IC50 under setting [2] was 100 to 500 nM, the IC50 under setting [1] turned out to be 222 nM and the IC50 (read-out: hcGAS activity) is 100 to 500 nM.
As for `COc1ccc(C(=O)N2CCc3[nH]c4c(Cl)c(Cl)ccc4c3C2)nn1` [Compound 56, (6,7-dichloro-1,3,4,5-tetrahydro-2H-pyrido[4,3-b]indol-2-yl)(6-methoxypyridazin-3-yl)methanone], the IC50 is 1000 to 5000 nM under setting [2] and 4350 nM under setting [1].
